Measured values published in ChEMBL document CHEMBL1201862, “PubChem BioAssay data set” (2004).
Values belong to the molecule of their own block, whether it stands above or below them. Active and inactive are the calls of the source.

Assays:
HEK293 [1] = experiment: NOD1 signaling inhibitors, primary screen, cell-based, luminescence, uHTS (AID 1578); assay type: functional; settings: Homo sapiens
HEK293 [2] = experiment: NOD2 signaling inhibitors in MDP-stimulated cells, cell-based, uHTS, luminescence (AID 2001); assay type: functional; settings: Homo sapiens
[3] = target: Nucleotide-binding oligomerization domain-containing protein 1 (Homo sapiens, UniProt Q9Y239); experiment: NOD1 signaling inhibitors, SAR follow-up, revised (AID 2333); assay type: functional
[4] = cytotoxicity in HEK-293T cells, dose response, cytotoxicity control for TCR NF-kB inhibitor project, luminescence, T-cell screen hits (AID 489026); assay type: functional, cell-based;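 note: cells exposed to compound about 14 hours before the viability readout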
HEK293 [5] = experiment: cells; settings: Homo sapiens
HEK293 [6] = experiment: cells; assay type: functional, cell-based; settings: Homo sapiens
HEK293 [7] = experiment: cells; assay type: functional, cell-based; settings: Homo sapiens; remark: listed apart in the source
HEK293 [8] = experiment: cells; assay type: functional, cell-based; settings: Homo sapiens; remark: listed apart in the source
Tumor necrosis factor = Tumor necrosis factor (Homo sapiens, UniProt P01375); experiment: TNFa-triggered NF-kB activation inhibitors, SAR follow-up, cell-based, revised (AID 2337); assay type: functional
[9] = target: Nucleotide-binding oligomerization domain-containing protein 2 (Homo sapiens, UniProt Q9HC29); experiment: NOD2 signaling inhibitors, cell-based, luminescence, uHTS, HEK293 (AID 1566); assay type: functional
[10] = target: Induced myeloid leukemia cell differentiation protein Mcl-1 (Homo sapiens, UniProt Q07820); assay type: functional
Trypsin = Trypsin (Sus scrofa, UniProt P00761); experiment: porcine trypsin inhibitors, dose response, selectivity assay for Rce1 protease inhibitor project, biochemical, quenched peptide fluorescence, cherry-pick (AID 488789)
Caspase-3 = target: T1, Caspase-3 (Homo sapiens, UniProt P42574); assay type: functional;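 note: Dose-response selectivity test against caspase-3 for candidate inhibitors of sentrin-specific proteases (SENPs)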
T1 sequence (P42574 whole entry): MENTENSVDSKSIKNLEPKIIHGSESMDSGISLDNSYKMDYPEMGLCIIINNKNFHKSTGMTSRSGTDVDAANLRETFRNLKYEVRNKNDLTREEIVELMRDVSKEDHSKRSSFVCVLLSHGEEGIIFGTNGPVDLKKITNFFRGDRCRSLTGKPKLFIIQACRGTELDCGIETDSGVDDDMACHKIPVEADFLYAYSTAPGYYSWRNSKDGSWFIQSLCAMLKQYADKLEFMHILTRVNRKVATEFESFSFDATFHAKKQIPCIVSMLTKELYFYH

[11] = target: T2, Calpain-2 catalytic subunit (Sus scrofa, UniProt P43367); experiment: pig calpain II inhibitor potency, dose response, biochemical, fluorogenic peptide substrate (AID 1420); assay type: functional
T2 sequence (P43367 whole entry): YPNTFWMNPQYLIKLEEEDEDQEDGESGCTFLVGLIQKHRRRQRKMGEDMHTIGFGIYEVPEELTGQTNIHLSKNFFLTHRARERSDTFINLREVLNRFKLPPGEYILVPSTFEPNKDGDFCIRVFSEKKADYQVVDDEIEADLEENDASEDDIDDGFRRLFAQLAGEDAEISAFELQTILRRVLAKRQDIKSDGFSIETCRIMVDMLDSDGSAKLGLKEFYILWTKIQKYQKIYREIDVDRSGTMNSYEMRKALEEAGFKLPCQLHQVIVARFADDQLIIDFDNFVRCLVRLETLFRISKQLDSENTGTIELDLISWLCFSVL

CAAX prenyl protease 2 [12] = target: CAAX prenyl protease 2 (Homo sapiens, UniProt Q9Y256); experiment: human Rce1 protease inhibitors, dose response, biochemical, yeast membranes, quenched-peptide fluorescence, cherry-pick (AID 588849)
CAAX prenyl protease 1 = CAAX prenyl protease 1 (Saccharomyces cerevisiae S288c, UniProt P47154); experiment: Ste24 protease inhibitors, dose response, biochemical, S. cerevisiae, plate reader, cherry-pick (AID 488815)
CAAX prenyl protease 2 [13] = target: CAAX prenyl protease 2 (Saccharomyces cerevisiae S288c, UniProt Q03530); assay type: biochemical
[14] = target: T3, Sentrin-specific protease 7 (Homo sapiens, UniProt Q9BQF6); assay type: functional;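 note: Luminescence-based dose-response confirmation of ultra-high-throughput screening hits, measuring inhibition of SENP7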
T3 sequence (Q9BQF6 whole entry): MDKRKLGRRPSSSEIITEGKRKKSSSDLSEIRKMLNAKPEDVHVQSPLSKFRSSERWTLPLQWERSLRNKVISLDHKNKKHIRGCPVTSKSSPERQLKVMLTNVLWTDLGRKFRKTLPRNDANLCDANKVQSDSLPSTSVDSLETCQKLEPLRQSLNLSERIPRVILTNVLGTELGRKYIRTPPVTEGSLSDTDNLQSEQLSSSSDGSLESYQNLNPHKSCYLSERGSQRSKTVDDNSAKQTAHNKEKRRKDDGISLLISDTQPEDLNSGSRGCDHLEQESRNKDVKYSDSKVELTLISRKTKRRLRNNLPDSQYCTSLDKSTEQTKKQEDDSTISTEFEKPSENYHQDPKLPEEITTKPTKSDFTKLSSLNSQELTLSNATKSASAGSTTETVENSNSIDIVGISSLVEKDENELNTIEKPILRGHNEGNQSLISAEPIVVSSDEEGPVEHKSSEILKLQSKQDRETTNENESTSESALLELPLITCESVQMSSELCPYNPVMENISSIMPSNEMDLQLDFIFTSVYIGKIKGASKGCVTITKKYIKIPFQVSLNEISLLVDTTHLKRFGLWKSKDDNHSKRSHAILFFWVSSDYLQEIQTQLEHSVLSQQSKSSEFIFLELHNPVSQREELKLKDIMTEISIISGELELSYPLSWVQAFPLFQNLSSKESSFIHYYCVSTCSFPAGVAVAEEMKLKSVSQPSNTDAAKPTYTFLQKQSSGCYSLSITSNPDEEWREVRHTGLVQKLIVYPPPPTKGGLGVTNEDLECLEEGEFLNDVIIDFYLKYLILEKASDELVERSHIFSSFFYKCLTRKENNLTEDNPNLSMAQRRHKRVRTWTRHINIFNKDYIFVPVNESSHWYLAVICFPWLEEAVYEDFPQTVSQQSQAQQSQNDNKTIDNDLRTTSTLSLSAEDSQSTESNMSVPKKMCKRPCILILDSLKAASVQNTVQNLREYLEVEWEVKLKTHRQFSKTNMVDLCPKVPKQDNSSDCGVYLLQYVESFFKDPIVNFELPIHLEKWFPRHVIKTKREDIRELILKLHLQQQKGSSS

[15] = target: FAD-linked sulfhydryl oxidase ALR (Homo sapiens, UniProt P55789); experiment: inhibitors of human ALR sulfhydryl oxidase, dose response, biochemical, H2O2 detection, luminescence, cherry-pick (AID 493248)
[16] = target: T4, Sentrin-specific protease 8 (Homo sapiens, UniProt Q96LD8); assay type: functional;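 note: luminescence read-out of SENP8 inhibition, dose-response confirmation following an ultra-high-throughput screen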
T4 sequence (Q96LD8 whole entry): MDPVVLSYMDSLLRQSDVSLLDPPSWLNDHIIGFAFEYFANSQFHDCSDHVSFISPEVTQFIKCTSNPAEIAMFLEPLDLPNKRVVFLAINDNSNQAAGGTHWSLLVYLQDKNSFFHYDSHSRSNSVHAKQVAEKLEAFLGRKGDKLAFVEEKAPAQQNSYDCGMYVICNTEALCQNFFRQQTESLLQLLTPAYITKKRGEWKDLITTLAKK

Genome polyprotein = Genome polyprotein (dengue virus type 2, UniProt P29990); experiment: Dengue-2 NS5 methyltransferase inhibitors, primary screen, biochemical, confirmation dose response (AID 588689); assay type: functional
[17] = target: T5, Sentrin-specific protease 6 (Homo sapiens, UniProt Q9GZR1); assay type: functional;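 note: Luminescence-based dose-response confirmatory assay of SENP6 inhibition, following up an ultra-high-throughput screen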
T5 sequence (Q9GZR1 whole entry): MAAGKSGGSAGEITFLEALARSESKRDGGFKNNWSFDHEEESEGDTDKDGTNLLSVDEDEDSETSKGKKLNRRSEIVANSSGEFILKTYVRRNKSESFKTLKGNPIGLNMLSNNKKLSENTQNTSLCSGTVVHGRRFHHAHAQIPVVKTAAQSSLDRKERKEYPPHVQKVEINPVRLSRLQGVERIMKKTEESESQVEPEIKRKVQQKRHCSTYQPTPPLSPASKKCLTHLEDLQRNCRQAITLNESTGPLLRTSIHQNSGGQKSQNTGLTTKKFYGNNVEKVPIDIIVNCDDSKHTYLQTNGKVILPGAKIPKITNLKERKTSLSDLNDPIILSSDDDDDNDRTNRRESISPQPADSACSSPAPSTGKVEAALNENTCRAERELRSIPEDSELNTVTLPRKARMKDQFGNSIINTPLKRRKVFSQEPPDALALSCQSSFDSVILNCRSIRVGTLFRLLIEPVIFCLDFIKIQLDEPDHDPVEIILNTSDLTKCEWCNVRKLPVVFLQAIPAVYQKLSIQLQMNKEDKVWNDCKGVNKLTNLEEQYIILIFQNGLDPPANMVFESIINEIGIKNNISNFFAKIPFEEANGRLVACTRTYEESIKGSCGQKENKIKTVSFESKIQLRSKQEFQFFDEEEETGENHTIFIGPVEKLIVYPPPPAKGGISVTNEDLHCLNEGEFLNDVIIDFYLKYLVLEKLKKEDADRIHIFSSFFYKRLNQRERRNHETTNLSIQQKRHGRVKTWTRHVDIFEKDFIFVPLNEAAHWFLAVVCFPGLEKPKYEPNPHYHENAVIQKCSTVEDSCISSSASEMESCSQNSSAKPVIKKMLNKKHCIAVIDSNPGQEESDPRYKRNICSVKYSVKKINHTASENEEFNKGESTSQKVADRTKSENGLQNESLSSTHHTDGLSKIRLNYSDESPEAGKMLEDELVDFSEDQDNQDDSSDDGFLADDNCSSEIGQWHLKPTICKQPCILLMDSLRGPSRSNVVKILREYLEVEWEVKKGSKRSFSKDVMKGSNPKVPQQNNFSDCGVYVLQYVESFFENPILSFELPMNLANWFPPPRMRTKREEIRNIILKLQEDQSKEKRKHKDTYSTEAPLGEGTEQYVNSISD

Cytochrome P450 2C9 = Cytochrome P450 2C9 (Homo sapiens, UniProt P11712)
Cytochrome P450 2D6 = Cytochrome P450 2D6 (Homo sapiens, UniProt P10635);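 note: CYP2D6 member of a cytochrome P450 panel assay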
Chain of Cytochrome P450 2D6 (P10635 whole entry): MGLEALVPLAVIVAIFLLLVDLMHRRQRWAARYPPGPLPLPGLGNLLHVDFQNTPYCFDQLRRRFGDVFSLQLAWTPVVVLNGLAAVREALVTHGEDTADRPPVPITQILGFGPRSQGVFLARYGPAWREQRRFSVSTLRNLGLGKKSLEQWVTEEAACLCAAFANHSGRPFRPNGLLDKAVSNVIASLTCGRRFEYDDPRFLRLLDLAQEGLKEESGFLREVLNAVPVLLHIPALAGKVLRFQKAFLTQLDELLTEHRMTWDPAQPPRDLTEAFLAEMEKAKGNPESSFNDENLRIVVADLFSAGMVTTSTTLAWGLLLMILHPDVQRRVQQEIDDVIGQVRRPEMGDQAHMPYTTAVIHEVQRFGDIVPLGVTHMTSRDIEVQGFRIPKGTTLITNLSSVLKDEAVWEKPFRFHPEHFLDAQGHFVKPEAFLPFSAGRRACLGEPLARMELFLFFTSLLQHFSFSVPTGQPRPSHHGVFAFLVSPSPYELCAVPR

Chain of CAAX prenyl protease 1 (P47154 whole entry): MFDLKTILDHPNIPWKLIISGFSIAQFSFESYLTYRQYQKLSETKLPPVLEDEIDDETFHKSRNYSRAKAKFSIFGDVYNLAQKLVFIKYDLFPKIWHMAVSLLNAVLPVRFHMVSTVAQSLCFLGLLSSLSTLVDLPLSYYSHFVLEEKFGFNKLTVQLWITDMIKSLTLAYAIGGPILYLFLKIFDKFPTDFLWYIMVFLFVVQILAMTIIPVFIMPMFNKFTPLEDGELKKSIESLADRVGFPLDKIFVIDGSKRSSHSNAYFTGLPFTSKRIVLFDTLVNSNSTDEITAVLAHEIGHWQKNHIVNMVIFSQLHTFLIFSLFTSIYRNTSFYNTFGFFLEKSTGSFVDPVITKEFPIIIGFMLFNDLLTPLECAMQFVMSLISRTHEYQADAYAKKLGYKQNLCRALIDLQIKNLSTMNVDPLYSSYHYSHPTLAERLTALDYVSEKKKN
Chain of Nucleotide-binding oligomerization domain-containing protein 1 (Q9Y239 whole entry, the tested form may be a part): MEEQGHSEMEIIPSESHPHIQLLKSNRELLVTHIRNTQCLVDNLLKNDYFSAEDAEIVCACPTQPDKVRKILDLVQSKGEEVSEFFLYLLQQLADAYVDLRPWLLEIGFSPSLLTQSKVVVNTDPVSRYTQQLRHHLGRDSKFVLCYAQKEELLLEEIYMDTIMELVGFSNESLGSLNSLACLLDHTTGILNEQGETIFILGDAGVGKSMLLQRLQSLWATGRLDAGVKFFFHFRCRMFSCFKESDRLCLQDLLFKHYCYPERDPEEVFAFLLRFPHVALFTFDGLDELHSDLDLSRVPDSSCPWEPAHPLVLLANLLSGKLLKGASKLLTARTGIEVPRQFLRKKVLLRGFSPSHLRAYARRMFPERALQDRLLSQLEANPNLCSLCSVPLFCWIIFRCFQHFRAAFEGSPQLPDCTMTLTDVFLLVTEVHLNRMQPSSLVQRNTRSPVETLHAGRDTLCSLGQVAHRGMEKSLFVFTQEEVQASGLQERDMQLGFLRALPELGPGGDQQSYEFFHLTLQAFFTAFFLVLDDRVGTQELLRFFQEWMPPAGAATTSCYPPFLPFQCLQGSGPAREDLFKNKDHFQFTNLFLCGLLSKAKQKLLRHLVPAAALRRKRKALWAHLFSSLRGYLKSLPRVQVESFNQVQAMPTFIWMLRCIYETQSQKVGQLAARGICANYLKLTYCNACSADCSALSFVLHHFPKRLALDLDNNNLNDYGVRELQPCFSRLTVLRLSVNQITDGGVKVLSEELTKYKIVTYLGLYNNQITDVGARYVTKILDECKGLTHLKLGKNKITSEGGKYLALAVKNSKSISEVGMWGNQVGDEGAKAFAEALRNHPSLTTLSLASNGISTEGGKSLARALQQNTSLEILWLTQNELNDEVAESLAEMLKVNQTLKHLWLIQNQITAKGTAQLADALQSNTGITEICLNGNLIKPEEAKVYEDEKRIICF
Chain of Genome polyprotein (P29990 2492-3391 limits assumed): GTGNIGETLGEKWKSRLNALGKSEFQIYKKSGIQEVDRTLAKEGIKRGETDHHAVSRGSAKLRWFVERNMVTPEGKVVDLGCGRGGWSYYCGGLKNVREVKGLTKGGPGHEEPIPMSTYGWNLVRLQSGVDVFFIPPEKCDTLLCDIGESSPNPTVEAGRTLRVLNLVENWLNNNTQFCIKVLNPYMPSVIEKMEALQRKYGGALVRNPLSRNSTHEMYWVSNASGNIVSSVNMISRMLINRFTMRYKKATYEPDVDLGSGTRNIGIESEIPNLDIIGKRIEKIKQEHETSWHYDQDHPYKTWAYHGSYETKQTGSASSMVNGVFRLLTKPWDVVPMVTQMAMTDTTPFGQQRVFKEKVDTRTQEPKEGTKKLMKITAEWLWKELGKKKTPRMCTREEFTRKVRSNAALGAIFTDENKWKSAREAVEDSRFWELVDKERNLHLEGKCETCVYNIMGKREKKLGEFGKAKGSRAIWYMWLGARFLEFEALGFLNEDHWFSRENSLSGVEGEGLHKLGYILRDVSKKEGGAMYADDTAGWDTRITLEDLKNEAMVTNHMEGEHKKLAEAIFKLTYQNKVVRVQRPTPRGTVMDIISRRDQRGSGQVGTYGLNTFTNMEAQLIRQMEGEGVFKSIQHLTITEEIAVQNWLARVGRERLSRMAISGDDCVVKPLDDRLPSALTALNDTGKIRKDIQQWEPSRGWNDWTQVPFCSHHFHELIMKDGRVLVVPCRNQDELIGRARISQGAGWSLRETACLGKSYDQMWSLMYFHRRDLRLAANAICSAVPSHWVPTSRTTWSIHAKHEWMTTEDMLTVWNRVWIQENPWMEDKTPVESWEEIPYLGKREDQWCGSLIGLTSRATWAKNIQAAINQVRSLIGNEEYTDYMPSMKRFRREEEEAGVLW
Chain of CAAX prenyl protease 2 (Homo sapiens, UniProt Q9Y256) (Q9Y256 whole entry): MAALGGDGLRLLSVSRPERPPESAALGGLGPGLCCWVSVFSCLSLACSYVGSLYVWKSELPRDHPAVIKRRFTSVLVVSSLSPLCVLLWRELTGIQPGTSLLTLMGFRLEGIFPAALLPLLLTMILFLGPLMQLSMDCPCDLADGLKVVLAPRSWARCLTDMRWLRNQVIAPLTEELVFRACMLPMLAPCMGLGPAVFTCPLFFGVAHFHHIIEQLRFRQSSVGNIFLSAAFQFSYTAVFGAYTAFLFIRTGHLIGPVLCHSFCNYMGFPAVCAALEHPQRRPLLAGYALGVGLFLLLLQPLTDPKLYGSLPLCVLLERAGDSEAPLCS
Chain of CAAX prenyl protease 2 (Saccharomyces cerevisiae S288c, UniProt Q03530) (Q03530 whole entry): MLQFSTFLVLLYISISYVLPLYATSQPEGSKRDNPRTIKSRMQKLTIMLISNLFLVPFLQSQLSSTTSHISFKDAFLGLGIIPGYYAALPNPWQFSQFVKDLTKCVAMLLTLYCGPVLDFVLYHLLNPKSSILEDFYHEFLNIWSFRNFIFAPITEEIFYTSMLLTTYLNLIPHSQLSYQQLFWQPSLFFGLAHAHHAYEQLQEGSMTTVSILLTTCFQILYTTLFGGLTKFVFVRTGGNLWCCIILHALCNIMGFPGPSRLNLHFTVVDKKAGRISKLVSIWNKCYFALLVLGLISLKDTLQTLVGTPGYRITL
Chain of Induced myeloid leukemia cell differentiation protein Mcl-1 (Q07820 whole entry): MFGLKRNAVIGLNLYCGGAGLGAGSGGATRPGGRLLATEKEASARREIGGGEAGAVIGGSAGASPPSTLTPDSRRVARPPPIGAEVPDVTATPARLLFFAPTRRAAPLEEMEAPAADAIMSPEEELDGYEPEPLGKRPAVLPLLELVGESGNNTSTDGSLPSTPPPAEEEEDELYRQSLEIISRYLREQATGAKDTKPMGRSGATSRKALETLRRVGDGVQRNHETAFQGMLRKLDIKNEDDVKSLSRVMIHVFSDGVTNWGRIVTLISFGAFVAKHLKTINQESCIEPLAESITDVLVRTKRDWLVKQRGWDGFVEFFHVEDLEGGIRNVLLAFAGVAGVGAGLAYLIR
Chain of Trypsin (P00761 whole entry): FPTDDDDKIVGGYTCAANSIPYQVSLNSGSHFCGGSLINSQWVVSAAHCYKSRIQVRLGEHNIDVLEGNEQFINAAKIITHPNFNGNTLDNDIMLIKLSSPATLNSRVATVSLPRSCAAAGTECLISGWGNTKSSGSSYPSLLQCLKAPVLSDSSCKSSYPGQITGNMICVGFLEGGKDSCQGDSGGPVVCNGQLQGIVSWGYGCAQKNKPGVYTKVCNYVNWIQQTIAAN
Chain of FAD-linked sulfhydryl oxidase ALR (P55789 whole entry): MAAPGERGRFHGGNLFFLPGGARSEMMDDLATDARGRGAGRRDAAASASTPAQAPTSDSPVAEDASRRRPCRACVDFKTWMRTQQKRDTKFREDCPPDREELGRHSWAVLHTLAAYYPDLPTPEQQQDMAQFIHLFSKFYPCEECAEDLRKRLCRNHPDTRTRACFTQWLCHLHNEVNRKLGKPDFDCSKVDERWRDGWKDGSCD
Chain of Cytochrome P450 2C9 (P11712 whole entry): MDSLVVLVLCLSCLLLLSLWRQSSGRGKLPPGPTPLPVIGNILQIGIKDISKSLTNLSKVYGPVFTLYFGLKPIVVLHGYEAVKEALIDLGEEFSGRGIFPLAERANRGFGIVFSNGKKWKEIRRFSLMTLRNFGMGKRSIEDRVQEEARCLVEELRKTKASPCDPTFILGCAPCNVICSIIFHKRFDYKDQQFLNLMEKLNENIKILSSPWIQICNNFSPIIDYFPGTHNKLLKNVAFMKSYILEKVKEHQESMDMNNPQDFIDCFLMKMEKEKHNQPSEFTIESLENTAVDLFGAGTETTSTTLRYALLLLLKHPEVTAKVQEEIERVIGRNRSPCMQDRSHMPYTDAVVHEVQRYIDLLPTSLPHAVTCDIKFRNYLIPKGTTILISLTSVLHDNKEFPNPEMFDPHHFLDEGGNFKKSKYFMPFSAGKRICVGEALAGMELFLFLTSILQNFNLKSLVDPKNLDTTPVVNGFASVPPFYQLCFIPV
Chain of Tumor necrosis factor (P01375 whole entry, the tested form may be a part): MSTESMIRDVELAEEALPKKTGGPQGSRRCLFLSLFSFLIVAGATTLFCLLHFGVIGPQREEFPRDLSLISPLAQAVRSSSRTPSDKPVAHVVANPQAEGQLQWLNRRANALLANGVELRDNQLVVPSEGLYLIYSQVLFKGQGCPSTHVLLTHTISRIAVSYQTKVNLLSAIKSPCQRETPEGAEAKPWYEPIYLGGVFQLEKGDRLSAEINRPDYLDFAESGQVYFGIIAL

SMILES: COC(=O)c1ccc2nc(Nc3nc4c(F)cc(F)cc4s3)sc2c1
- EC50 (HEK293 [1]): 3.03 µM (active)
- IC50 (HEK293 [2]): 1.92 µM (active)
- IC50 [3]: 429 nM (active)
- IC50 [4]: > 80 µM (inactive)
- IC50 (HEK293 [5]): 9.76 µM (active)
- IC50 (HEK293 [6]): 666 nM (active)
- IC50 (HEK293 [7]): > 20 µM (inactive)
- IC50 (HEK293 [8]): > 20 µM (inactive)
- IC50 (Tumor necrosis factor): 230 nM (active)
- EC50 [9]: 300 nM (active)
- IC50 [10]: 2.8 µM (active)

- AC50 (Trypsin): 13.8 µM (active)
- IC50 (Caspase-3): 22.7 µM (active)
- IC50 [11]: < 400 nM (not active)
- AC50 (CAAX prenyl protease 2 [12]): 5.18 µM (active)
- AC50 (CAAX prenyl protease 1): 5.53 µM (active)
- AC50 (CAAX prenyl protease 2 [13]): 4.78 µM (active)
- IC50 [14]: 3.24 µM (active)
- AC50 [15]: 2.1 µM (active)
- IC50 (Genome polyprotein): 64.1 µM (active)
- IC50 [17]: 2.6 µM (active)
SMILES: O=C(O)c1ccc(N/N=C/c2cn(Cc3ccccc3F)c3ccccc23)cc1
- IC50 [16]: 2.92 µM (active)

- AC50 (Cytochrome P450 2C9): 79.4 nM (inconclusive)
- AC50 (Cytochrome P450 2D6): inconclusive
SMILES: Nn1c(SCC(=O)N2CCOCC2)nnc1-c1ccccc1Cl
